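A five-concentration, 48-hour dose response in 96-well plates underlies each endpoint, interpolated linearly between surrounding concentrations. Abbreviation: GI50, concentration required for 50% inhibition of growth.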 Active and inactive are the calls of the source. Rule as the data show it: active = GI50 up to about 1.1 µM and inactive = higher.
Experiments:
Assay in all cases: NCI-60 cell line screen, 48 h
[1] = system: UACC-62
[2] = system: LOX IMVI
[3] = system: NCI-H460
[4] = system: SN12C
[5] = system: NCI-H23
[6] = system: SW-620
[7] = system: SK-MEL-5
[8] = system: HCT-116
[9] = system: Malme-3M
[10] = system: 786-0
[11] = system: OVCAR-3
[12] = system: ACHN
[13] = system: SF-268
[14] = system: NCI-H226
[15] = system: CAKI-1
[16] = system: SR

Measured: GI50

Nc1ccc(C(=O)NN2C(=O)C(Cl)C2c2cccc([N+](=O)[O-])c2)cc1 (configuration not stated)
inactive: [1] 21.1 µM | [2] 10.2 µM | [3] 59.7 µM | [4] 19.7 µM | [5] 16.4 µM | [6] 21.7 µM | [7] 19.2 µM | [8] 17.3 µM | [9] 20.4 µM | [10] 18.7 µM | [11] 20.5 µM | [12] 20.1 µM | [13] 17 µM | [14] 20.2 µM | [15] 19.5 µM

CCCCCCCCCCCCN(O)C(=O)c1ccccc1
inactive: [1] 19.7 µM | [2] 20.5 µM | [3] > 10 µM | [4] 17.1 µM | [5] 14.9 µM | [6] 34 µM | [16] 8.26 µM | [7] > 10 µM | [8] 42 µM | [9] 17.5 µM | [10] 16.9 µM | [11] > 100 µM | [12] 28.2 µM | [13] 15.1 µM

CCCN(CCC)CCc1cc(C(C)=O)n(S(=O)(=O)c2ccc(C)cc2)c1
inactive: [1] > 100 µM | [3] > 100 µM | [4] > 100 µM | [5] > 100 µM | [6] > 100 µM | [16] > 100 µM | [7] 41.4 µM | [8] > 100 µM | [9] > 100 µM | [10] > 100 µM | [11] > 100 µM | [12] > 100 µM | [13] > 100 µM | [14] > 100 µM | [15] 84.7 µM

N#C/C(=C/Sc1ccccc1)C(=O)O
inactive: [1] 26 µM | [2] 10.6 µM | [3] 25.7 µM | [4] 20 µM | [5] 45.1 µM | [6] 41.2 µM | [16] > 100 µM | [7] 29.6 µM | [8] 17.4 µM | [10] 22.6 µM | [11] 27.1 µM | [12] 27.6 µM | [13] 8.59 µM | [14] 23.3 µM | [15] 27.3 µM

Clc1ccc(C2=NN(c3ccccc3)C3c4cc(Br)ccc4OCC23)cc1 (configuration not stated)
inactive: [2] 64.3 µM | [3] > 100 µM | [5] 86.9 µM | [6] > 100 µM | [7] 59.7 µM | [8] 18.6 µM | [9] 96.4 µM | [10] > 100 µM | [11] > 100 µM | [12] > 100 µM | [13] 53.6 µM

N#CC(N)(C(=O)CCC(=O)Nc1cccc(Cl)c1)c1ccc(Cl)cc1 (configuration not stated)
inactive: [1] > 100 µM | [3] > 100 µM | [4] > 100 µM | [5] > 100 µM | [6] > 100 µM | [16] > 100 µM | [7] > 100 µM | [8] > 100 µM | [9] > 100 µM | [10] > 100 µM | [11] > 100 µM | [12] > 100 µM | [13] > 100 µM | [14] > 100 µM | [15] > 100 µM

O=C1C(Cl)C(c2ccc([N+](=O)[O-])cc2)N1n1cnc2ccccc2c1=O (configuration not stated)
inactive: [1] 70.5 µM | [2] 87.1 µM | [3] 17.2 µM | [4] 42.3 µM | [5] 32.6 µM | [6] 97.7 µM | [7] 57 µM | [8] 43.9 µM | [9] > 100 µM | [10] 20.7 µM | [11] 52.4 µM | [12] 61.5 µM | [13] 28.6 µM | [14] 51.6 µM | [15] 60.1 µM

C[C@]12CCC3[C@@H](CCC45OC4C(=O)CC[C@]35C)C1Cc1cnn(-c3ccc(F)cc3)c1N2 (some centres not stated)
inactive: [1] 19.7 µM | [2] 16.7 µM | [3] 28.6 µM | [4] 23.3 µM | [5] 22.2 µM | [6] 31.8 µM | [16] 27.2 µM | [7] 31.5 µM | [8] 15.3 µM | [9] > 100 µM | [10] 18.6 µM | [12] 33.6 µM | [13] 23.6 µM | [14] 33.4 µM

COC(=O)/C(Cl)=C1/CC1COCc1ccccc1 (configuration not stated)
inactive: [1] 23.9 µM | [2] > 10 µM | [3] 43.4 µM | [4] 36.6 µM | [5] 31.5 µM | [6] 21.1 µM | [7] 24.1 µM | [9] 26.6 µM | [10] 19.7 µM | [11] 23.2 µM | [12] 25.4 µM | [13] 43.8 µM | [14] 32.3 µM | [15] 22.6 µM

CC(=O)Nc1ccc(C2CC(c3ccc([N+](=O)[O-])cc3)=Nc3ccccc3[S+]2[O-])cc1 (configuration not stated)
inactive: [1] 11.6 µM | [2] 14.7 µM | [3] 23.3 µM | [4] 24.5 µM | [5] 21.5 µM | [6] 20 µM | [7] 19.6 µM | [9] > 10 µM | [10] 9.64 µM | [11] 25.3 µM | [12] 20.6 µM | [13] 36.6 µM | [14] 20.4 µM | [15] > 10 µM

From ChEMBL document CHEMBL1201862, “PubChem BioAssay data set” (2004)
